# Columns and labels:
# [1] = system: CCl4-intoxicated C57BL/6J mice; assay: CCl4-induced liver fibrosis in mice, oral gavage once daily for 2 weeks; assay type: in vivo, mouse
# Method: C57BL/6J mice were housed in housing cages GM500 (500 cm^3) throughout the experimental phase. Animals' cages litters were changed at least once a week. They were housed in groups of 4 animals on a normal 12-hour light cycle (at 07:30 pm lights off), 22±2° C. and 55±10% relative humidity. Animals were acclimated for 5 days. During the whole phase standard diet (SAFE, Ref.: U8400G10R) and tap water were provided ad libitum.
# After the acclimation period, mice were intoxicated with CCl4 i.p. twice weekly for 2 weeks to induce liver fibrosis. Body weight was recorded twice weekly for the 2-week intoxication period. After 2 weeks of CCl4 injection (~72 hours after the 4th injection of CCl4), mice were weighted and bled at ~08:00 am to collect blood (150 μL blood on heparin by retro-orbital bleeding under isoflurane anaesthesia) and measure plasma ALT and AST levels. Mice were then randomized into 2 homogenous groups (n=10/group) based on 1) ALT, 2) AST and 3) body weight.
# Mice were treated by oral gavage once daily with vehicle or HK3 for 2 weeks (from day 0 to day 13). During this 2-week treatment period, CCl4 twice weekly i.p. injection was still performed until the end of the in-life phase. Body weight was recorded twice weekly, during the 2-week treatment period.
# At the end of the treatment period (~48 hours after the last injection of CCl4), all mice were weighed and 3 h-fasted at ~10:00 am. The last dose of vehicle and test compound was administered at ~10:00 am, prior to blood collection (retro-orbital bleeding under isoflurane anesthesia for maximal volume/heparin) at ~1:00 pm. Plasma was isolated and immediately stored at −80° C.
# Subsequently, the liver of each mouse was collected and weighted. Liver samples were dissected from the left lateral lobe for formalin-fixed paraffin-embedded samples for shipment for histology analysis (H&E and Sirius Red staining), % Sirius Red labelling and NAS scoring.
# A total of 50 slides, each having a single hepatic lobe section stained with H&E (25) and Sirius red (25) were digitized using a Nanozoomer from Hamamatsu at Sciempath laboratory and posted on a secured digital slide server. They were downloaded and visualized using NDP viewer. Sections were evaluated with knowledge of groups but without knowledge of treatment. Each section was evaluated and individually scored.
# A NAFLD scoring system (NAS), with which a total of four variables was qualitatively assessed and ranked with a score: (1) hepatocellular steatosis, (2) liver inflammation, (3) lobular fibrosis, and (4) hepatocyte ballooning.
# An individual mouse NAS total score was calculated for each animal by summing up the score for (1) hepatocellular steatosis, (2) liver inflammation, (3) lobular fibrosis, and (4) hepatocyte ballooning. Whole-section histomorphometric measurements of positive area for Sirius Red were performed using computer-assisted image analysis on digitized sections. The histomorphometric measurements were generated with the software from Visiopharm (Denmark) using an automated approach. Analysis was performed on virtual whole sections at 20× magnification for morphometric evaluation. The pixel value at 20× magnification corresponded to 0.46 μm/pixel.
# An algorithm was prepared for Sirius Red (SR) morphometric measurement on liver-stained sections. The algorithm was generated with the Bayesian linear segmentation tool in the software package, which was further refined through training on a subset of sections from 5 animals. Major histology section artefacts, as well as, large vascular empty spaces were automatically dissected and removed from area of interest (AOI) or detected positive area. Also, positive collagen from capsule and large vessels media layer was automatically excluded from SR positive area.
# The total area analysed or AOI (mm2), the total SR positive area (mm2) and the percent “SR” area/total liver area analysed (%) were determined. […]
# [2] = system: pro-collagen 1a1 in 3D PHH:NPC spheroid supernatants; assay: Pro-collagen 1a1 ELISA in supernatants of 3D PHH:NPC NASH spheroids; assay type: cell-based, human; conditions: NASH medium
# Method: Experiments were conducted using HepaPredict's (HepaPredict AB, Sweden) 3D primary human hepatocyte (PHH) spheroid NASH model (e.g. as published in Bell et al. Sci Rep. 2016 May 4; 6:25187. doi: 10.1038/srep25187).
# Cryopreserved primary human hepatocytes were obtained from BioIVT (USA) and nonparenchymal cells (NPC) from LifeNetHealth (USA). After thawing, PHH-NPC cocultures were seeded in a multi-well 96-well Elplasia plate (Corning) in William's E medium containing 11 mM glucose, 10 μg/mL (control) or 10 mg/mL insulin (NASH), 100 nM dexamethasone, 5.5 mg/L transferrin, 6.7 μg/L selenite, 2 mM L-glutamine, 1 U/mL penicillin, 0.1 mg/mL streptomycin, and 10% fetal bovine serum (FBS). PHH-NPC cocultures were seeded in ratio of 6:1 PHH:NPC with a total of 40,000 PHH per well. When spheroids were formed, FBS was phased out and spheroids were maintained in either the same media to provide the negative control (“Ctrl”), or with addition of albumin-conjugated free fatty acid (FFA), comprised of 240 μM palmitic acid and 240 μM oleic acid (NASH medium) to provide the positive control (“NASH”). Compound exposure was conducted in NASH medium with medium exchanges every 48-72 hours.
# After spheroid formation, cells were exposed to up to five different concentrations of the candidate molecules HK1 or HK3 (0.1 μM, 0.3 μM, 1 μM, 3 μM, and 10 μM) with or without FFA in the culture medium. All compound stocks and dilutions were prepared in DMSO, aliquoted and stored protected from light at −20° C. Fresh dosing solutions were prepared from these aliquots on each dosing day. All endpoints were evaluated after 14 days of exposure. […]
# Supernatant from each well was collected and stored at […]. On the day of the measurement, samples were thawed and fibrosis was evaluated using the Human Pro-collagen 1 alpha 1 DuoSet ELISA (R&D Systems) where pro-collagen 1a1 levels were measured in culture supernatants. […]
# [3] = CCl4 mice, oral gavage once daily, 2 weeks
structure (smiles),measurement,setting,value
"Cc1cc(NC(=S)/C(C#N)=C(\O)C2CC2)ccc1[N+](=O)[O-] [HK3, 2-Cyano-3-cyclopropyl-3-hydroxy-N-(3-methyl-4-nitro-phenyl)-thioacrylamide]",percentage of Sirius Red labelling compared to baseline group,"[1]; CCl4 mice, liver sections, p<0.01",significantly increased
same,percentage of Sirius Red labelling compared to the vehicle group,"[1]; CCl4 mice, liver sections, p<0.05",significantly reduced
same,number of mice with a fibrosis score equal to 2,"[1]; CCl4 mice, n=10/group",9 mice
same,number of mice with a fibrosis score equal to 3,"[1]; CCl4 mice, n=10/group",1 mouse
same,body weight and body weight gain compared to vehicle treatment,[1]; [3],not altered
same,liver weight and relative liver weight compared to vehicle treatment,[1]; [3],did not change
same,plasma ALT and AST levels compared to vehicle treatment,[1]; [3],did not change
same,"fibrosis score, treated group versus vehicle-treated group","[1]; CCl4 mice, p<0.05",significant difference
same,"fibrosis score, treated group versus baseline group","[1]; CCl4 mice, baseline = CCl4 for two weeks only",no significant difference
same,TNF-α levels in liver homogenates compared to CCl4-treated group,"[1]; combined administration with CCl4, p<0.05",slight but significant downregulation
same,pro-collagen 1a1 levels compared to NASH,[2]; 1 μM,82%
same,pro-collagen 1a1 levels compared to NASH,[2]; 3 μM,73%
same,pro-collagen 1a1 levels compared to NASH,[2]; 10 μM,64%

# — US20260191815A1, “THIOACRYLAMIDE DERIVATIVES FOR USE IN THE PREVENTION OR TREATMENT OF LIVER FIBROSIS” (CMR CUREDIAB METABOLIC RESEARCH GMBH, priority 2022, published 2026)
